Experimental data: patent publication US20260262643A1, “HERBICIDAL BENZOXAZINES” (FMC CORPORATION, priority 2022, published 2026)

Experiments:
blackgrass [1] = assay: Test A preemergence; format: in vivo, Alopecurus myosuroides; conditions: 0 to 100 scale
Summary of the method: (§1)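 Weeds and crops in loam–sand blend were sprayed preemergence onto soil or postemergence at 2–10 cm (one- to two-leaf stage). Test chemicals were in a non-phytotoxic solvent with surfactant. After 10 days in the greenhouse, injury was rated visually against untreated controls on a 0 (no effect) to 100 (complete control) scale.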

pigweed, palmer [2] = assay: Test A preemergence; format: in vivo, Amaranthus palmeri; conditions: 0 to 100 scale
Summary of the method: as §1

ragweed [3] = assay: Test A preemergence; format: in vivo, Ambrosia artemisiifolia; conditions: 0 to 100 scale
Summary of the method: as §1

ryegrass, Italian = assay: Test A preemergence; format: in vivo, Lolium multiflorum; conditions: 0 to 100 scale
Summary of the method: as §1

soybean = assay: Test A preemergence; format: in vivo, Glycine max; conditions: 0 to 100 scale
Summary of the method: as §1

blackgrass [4] = assay: Test A postemergence; format: in vivo, Alopecurus myosuroides; conditions: postemergence, 10 days
Summary of the method: as §1

corn = assay: Test A postemergence; format: in vivo, Zea mays; conditions: postemergence, 10 days
Summary of the method: as §1

foxtail, giant = assay: Test A postemergence; format: in vivo, Setaria faberi; conditions: postemergence, 10 days
Summary of the method: as §1

oat, wild = assay: Test A postemergence; format: in vivo, Avena fatua; conditions: postemergence, 10 days
Summary of the method: as §1

pigweed, palmer [5] = assay: Test A postemergence; format: in vivo, Amaranthus palmeri; conditions: postemergence, 10 days
Summary of the method: as §1

ragweed [6] = assay: Test A postemergence; format: in vivo, Ambrosia artemisiifolia; conditions: postemergence, 10 days
Summary of the method: as §1

wheat = assay: Test A postemergence; format: in vivo, Triticum aestivum; conditions: postemergence, 10 days
Summary of the method: as §1

ducksalad = assay: Test B flooded paddy test; format: in vivo, Heteranthera limosa; conditions: 250 g ai/ha, Flood, 13 days, 0 to 100 scale (0 no effect, 100 complete control)
Summary of the method: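 2-leaf stage; pots flooded 3 cm over soil; compound dosed into paddy water; depth kept constant. Greenhouse, 13 d. Visual rating vs controls, 0 (no effect)–100 (complete control). Dash = no result.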

[7] = 125 g ai/ha, 0 to 100 scale, 0 no effect, 100 complete control
[8] = 500 g ai/ha, visual injury, 0 to 100 scale (0 no effect, 100 complete control)

CC(C)c1ncn(-c2cc(C(=O)N3C[C@H](C)Oc4c(Cl)cccc43)c3ccccc3c2)n1 [Compound 145]
Plant response rating, Blackgrass (blackgrass [1]; 125 g ai/ha): 40 | pest or weed control at 500 g/ha (blackgrass [1]; Alopecurus myosuroides, pre-emergence, 240 h, 500 g ai/ha, visual injury after 10 days, 0 is no effect, 100 is complete control, read-out: Plant response rating, Blackgrass): 80% | Plant response rating, Pigweed, Palmer (pigweed, palmer [2]; 125 g ai/ha): 80 | pest or weed control at 500 g/ha (pigweed, palmer [2]; Amaranthus palmeri, pre-emergence, 240 h, 500 g ai/ha, visual injury after 10 days, 0 is no effect, 100 is complete control, read-out: Plant response rating, Pigweed, Palmer): 100% | Plant response rating, Ragweed (ragweed [3]; 125 g ai/ha): 0 | pest or weed control at 500 g/ha (ragweed [3]; Ambrosia artemisiifolia, pre-emergence, 240 h, 500 g ai/ha, visual injury after 10 days, 0 is no effect, 100 is complete control, read-out: Plant response rating, Ragweed): 0% | Plant response rating, Ryegrass, Italian (ryegrass, Italian; 125 g ai/ha): 40 | pest or weed control at 500 g/ha (ryegrass, Italian; Lolium multiflorum, pre-emergence, 240 h, 500 g ai/ha, visual injury after 10 days, 0 is no effect, 100 is complete control, read-out: Plant response rating, Ryegrass, Italian): 90% | Plant response rating, Soybean (soybean; 125 g ai/ha): 0 | Plant response rating, Soybean (soybean; 500 g ai/ha, visual injury after 10 days, 0 is no effect, 100 is complete control): 0 | Blackgrass plant response rating (blackgrass [4]; [7]): 40 | Plant response rating, Blackgrass (blackgrass [4]; [8]): 70 | Corn plant response rating (corn; [7]): 10 | Corn plant response rating (crop injury, 0 = no effect, 100 = complete kill) at 500 g/ha (corn; Zea mays, post-emergence, 240 h, 500 g ai/ha, visual injury, 0 to 100 scale (0 no effect, 100 complete control)): 20% | Foxtail, Giant plant response rating (foxtail, giant; [7]): 20 | pest or weed control at 500 g/ha (foxtail, giant; Setaria faberi, post-emergence, 240 h, 500 g ai/ha, visual injury, 0 to 100 scale (0 no effect, 100 complete control), read-out: Plant response rating, Foxtail, Giant): 50% | Oat, Wild plant response rating (oat, wild; [7]): 10 | Plant response rating, Oat, Wild (oat, wild; [8]): 30 | Pigweed, Palmer plant response rating (pigweed, palmer [5]; [7]): 70 | pest or weed control at 500 g/ha (pigweed, palmer [5]; Amaranthus palmeri, post-emergence, 240 h, 500 g ai/ha, visual injury, 0 to 100 scale (0 no effect, 100 complete control), read-out: Plant response rating, Pigweed, Palmer): 90% | Ragweed plant response rating (ragweed [6]; [7]): 0 | Plant response rating, Ragweed (ragweed [6]; [8]): 10 | Wheat plant response rating (wheat; [7]): 30 | plant injury at 500 g/ha (wheat; Triticum aestivum, post-emergence, 240 h, 500 g ai/ha, visual injury, 0 to 100 scale (0 no effect, 100 complete control), read-out: Plant response rating, Wheat): 30% | Plant response rating, Ducksalad (ducksalad): 40
